How the values were obtained:
[1] = target: T1, SquF (MaSquF) (Marinobacterium aestuarii, UniProt A0A1A9EZ66); test: LC-MS of glucose; format: biochemical; settings: 0.5 mM NADPH, 6-dehydroglucose generated from SQ by SqoD, RT
T1 sequence (A0A1A9EZ66 1-300): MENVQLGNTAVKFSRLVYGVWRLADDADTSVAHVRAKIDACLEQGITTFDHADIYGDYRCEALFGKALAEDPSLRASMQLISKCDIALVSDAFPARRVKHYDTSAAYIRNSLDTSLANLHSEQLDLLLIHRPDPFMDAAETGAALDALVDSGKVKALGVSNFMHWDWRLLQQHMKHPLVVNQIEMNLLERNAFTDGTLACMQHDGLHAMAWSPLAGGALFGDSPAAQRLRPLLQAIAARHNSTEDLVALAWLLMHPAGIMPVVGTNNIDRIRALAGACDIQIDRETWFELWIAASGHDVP

[2] = target: T1, SquF (MaSquF); test: DNPH derivatization and LC-MS of 6-dehydroglucose; format: biochemical; settings: 10 mM NADP^+, 100 mM glucose, 50 mM CAPSO pH 10.0, RT; reverse reaction

Row | Compound | LC-MS of glucose; NADPH consumption [1] | DNPH derivatization and LC-MS of 6-dehydroglucose [2]
1 | NC(=O)C1=CN([C@@H]2O[C@H](COP(=O)(O)OP(=O)(O)OC[C@H]3O[C@@H](n4cnc5c(N)ncnc54)[C@H](OP(=O)(O)O)[C@@H]3O)[C@@H](O)[C@H]2O)C=CC1 [NADPH] | Inclusion of SquF and NADPH in the assay followed by LC-MS analysis | 
2 | OC[C@H]1OC(O)[C@H](O)[C@@H](O)[C@@H]1O (stereo partly drawn) [D-glucose] |  | SquF also catalyzed the reverse reaction, oxidation of glucose to 6-dehydoglucose

— publication PMC10507154 (iScience, 2023)
